We go through 6 compounds from US20060040338A1, “Pharmacological profiling of drugs with cell-based assays” (Odyssey Thera, Inc., priority 2004, published 2006).

What all share (type): cell-based, human
One assay relates to phospho-ERK. In words: phospho-ERK (T202/Y204) immunofluorescence high-content assay. The note with it: HEK293T cells; for effect on EGF-stimulated ERK phosphorylation: drug 90 min (PD98059 20 micromolar, SB203580 25 micromolar, 17-AAG 5 microM), 100 ng/ml hEGF during last 5 min; for ERK/MAP kinase phosphorylation, agent alone: isoproterenol 2 micromolar or forskolin 1 micromolar 15 min, anisomycin 10 micrograms/ml 10 min, hEGF 100 ng/ml 5 min. The protocol: (§1) We assessed the effects of the above-mentioned compounds on the three pathways and used the results to construct pharmacological profiles for the agents. Specifically we assessed changes in the phosphorylation status of the pathway ‘sentinels’ by constructing high-content, immunofluorescence assays using phospho-specific antibodies targeted to the downstream proteins in the pathways of interest. Human cells (HEK293) were treated with drugs and the phosphorylation status of the three downstream proteins was assessed in the absence or presence of epidermal growth factor (EGF). Cells were then fixed and probed with antisera generated against the phosphorylated forms of CREB (S133), ERK1/2 (phospho T*EY*), or phospho Hsp27 (S78/S82). The ERK1/2 antibodies specifically recognize the MAPK/ERK1 and MAPK/ERK2 protein kinases only when they are phosphorylated on Threonine 202 and Tyrosine 204 in the activation loop. […] Changes in the level and sub-cellular localization of a phosphorylated protein following treatment with a drug would indicate a functional connection between the drug and the pathway of interest.
(§2) Details of the methods used are as follows. HEK293T cells were seeded in black-walled, poly-lysine coated 96-well plates (Greiner) at a density of 30,000/well. After 24 hours, cells in duplicate wells were treated with combinations of different drugs and stimulus as follows: (a) 2 micromolar isoproterenol or 1 micromolar forskolin for 15 min.; (b) 25 micromolar SB203580 or vehicle (DMSO) for 90 minutes and 10 micrograms/ml anisomycin added to the cells during the last 10 min.; (c) 20 microolar PD98059, 25 micromolar SB203580, 5 microM 17-AAG or vehicle alone for 90 min. (d) as for (c), but with 100 ng/ml hEGF added to the cells during the last 5 min of drug treatment. The drugs were purchased from Calbiochem and hEGF was from Roche. Four sets of cells treated as described were prepared. The cells were rinsed once with PBS and fixed with 4% formaldehyde for 10 min. The cells were subsequently permeabilized with 0.25% Triton X-100 in PBS and incubated with 3% BSA for 30 min to block non-specific antibody binding. Each of the 4 sets of identically treated cells were then incubated with rabbit antibodies against phosphorylated CREB (Ser133), Hsp27 (Ser82), or pERK (T202/Y204) (Cell Signaling Technology, Inc.). Control wells were incubated with bovine serum albumin (BSA) in PBS. The cells were rinsed with PBS and incubated with Alexa488 conjugated goat anti-rabbit secondary antibody (Molecular Probes). Cell nuclei were stained with Hoechst33342 (Molecular Probes).
(§3) Images were acquired using Discovery-1 High Content Imaging System (Molecular Devices). Background fluorescence due to nonspecific binding by the secondary antibody was established with the use of cells that were incubated with BSA/PBS and without primary antibodies.
(§4) Raw images in 16-bit grayscale TIFF format were analyzed using ImageJ API/library (http://rsb.info.nih.gov/ij/, NIH, MD). First, images from the fluorescence channels (Hoechst and Alexa 488) were normalized using the ImageJ built-in rolling-ball algorithm [S. R. Sternberg, Biomedical image processing. Computer, 16(1), January 1983]. Next a threshold was established to separate the foreground from background. An iterative algorithm based on Particle Analyzer from ImageJ is applied to the thresholded Hoechst channel image (HI) to obtain the total cell count. The nuclear region of a cell (nuclear mask) is also derived from the thresholded HI. The positive particle mask is generated from the thresholded Alexa 488 image (YI). To calculate the global background (gBG), a histogram was obtained from the un-thresholded Alexa signal and the pixel intensity of the lowest intensity peak was identified as gBG. The Hoechst mask and Alexa mask are overlapped to define the correlated sub-regions of the cell. All means were corrected for the corresponding gBG. […]

The test system of another assay is phospho-CREB. The assay is described as follows: phospho-CREB (S133) immunofluorescence high-content assay. The note with it: HEK293T cells; for phosphorylation of CREB (phospho-CREB intensity), agent alone / subcellular distribution of phospho-CREB: isoproterenol 2 micromolar or forskolin 1 micromolar 15 min, anisomycin 10 micrograms/ml 10 min, relative to untreated control; for phosphorylation of CREB (phospho-CREB intensity), agent alone: hEGF 100 ng/ml 5 min. How it is done:
as §1, §2, §3, §4

The subject of a further assay is phospho-Hsp27. The assay is described as follows: phospho-Hsp27 immunofluorescence high-content assay. The note with it: HEK293T cells; for effect on EGF-induced Hsp27 phosphorylation: drug 90 min (PD98059 20 micromolar, SB203580 25 micromolar), 100 ng/ml hEGF during last 5 min; for Hsp27 phosphorylation (p38 pathway), agent alone: anisomycin 10 micrograms/ml 10 min, hEGF 100 ng/ml 5 min. The protocol: as §1, §2, §3
Raw images in 16-bit grayscale TIFF format were analyzed using ImageJ API/library (http://rsb.info.nih.gov/ij/, NIH, MD). First, images from the fluorescence channels (Hoechst and Alexa 488) were normalized using the ImageJ built-in rolling-ball algorithm [S. R. Sternberg, Biomedical image processing. Computer, 16(1), January 1983]. Next a threshold was established to separate the foreground from background. An iterative algorithm based on Particle Analyzer from ImageJ is applied to the thresholded Hoechst channel image (HI) to obtain the total cell count. The nuclear region of a cell (nuclear mask) is also derived from the thresholded HI. […]

“Also recorded” adds a separate entry of the source.

On to `C=CCNC1=C2C[C@@H](C)C[C@H](OC)[C@H](O)[C@@H](C)/C=C(\C)[C@H](OC(N)=O)[C@@H](OC)/C=C\C=C(/C)C(=O)NC(=CC1=O)C2=O` [17-AAG, 17-allylamino-17-demethoxygeldanamycin], for which the “effect on EGF-stimulated ERK phosphorylation” value in the assay with phospho-ERK is “effective at reducing”.

`COc1cccc(-c2cc(=O)c3ccccc3o2)c1N` [PD98059]: the “effect on EGF-induced phospho-CREB” value with phospho-CREB (drug 90 min (PD98059 20 micromolar), 100 ng/ml hEGF during last 5 min) is on record as “reduced”. The “effect on EGF-induced Hsp27 phosphorylation” value in the assay with phospho-Hsp27 was “no effect”. For the same compound, the “effect on EGF-stimulated ERK phosphorylation” value with phospho-ERK is on record as “significantly blocked”.

As for `C[S+]([O-])c1ccc(-c2nc(-c3ccc(F)cc3)c(-c3ccncc3)[nH]2)cc1` (centres unmarked) [SB203580, 4-(4-fluorophenyl)-2-(4-methylsulfinylphenyl)-5-(4-pyridyl)1H-imidazole], in the assay with phospho-Hsp27 (SB203580 25 micromolar 90 min, 10 micrograms/ml anisomycin during last 10 min), the “effect on anisomycin-induced phospho-Hsp27” value is “completely blocked”. Further, in the assay on phospho-Hsp27, the “effect on EGF-induced Hsp27 phosphorylation” value was “blocked”. For the same compound, the “effect on EGF-stimulated ERK phosphorylation” value in the assay with phospho-ERK is “no effect”.

For the compound `COc1ccc(C[C@H]2NC[C@H](O)[C@H]2OC(C)=O)cc1` [anisomycin], in the assay with phospho-CREB, the “phosphorylation of CREB (phospho-CREB intensity), agent alone” value (“phosphorylation of CREB” for short) was “little or no effect; also recorded: no effect” and the “subcellular distribution of phospho-CREB” value is “little or no effect”. The “Hsp27 phosphorylation (p38 pathway), agent alone” value in the assay on phospho-Hsp27 is reported as “induced”. Moreover, the “ERK/MAP kinase phosphorylation, agent alone” value (“ERK/MAP kinase phosphorylation” below) with phospho-ERK was “no effect”.

As for `CC(C)NCC(O)c1ccc(O)c(O)c1` (centres unmarked) [isoproterenol], in the assay on phospho-CREB, the “phosphorylation of CREB” value was “increased” and the “subcellular distribution of phospho-CREB” value is recorded as “predominantly nuclear pattern”. For the same compound, in the assay on phospho-ERK, the “ERK/MAP kinase phosphorylation” value is “no effects”.

In the case of “EGF: epidermal growth factor; hEGF from Roche, used as pathway stimulus”, the “phosphorylation of CREB” value with phospho-CREB is given as “induced”. The “Hsp27 phosphorylation (p38 pathway), agent alone” value in the assay with phospho-Hsp27 is recorded as “elicited p38 pathway activation”. Moreover, in the assay with phospho-ERK, the “ERK/MAP kinase phosphorylation” value is “strongly stimulated”.
